We go through two molecules from BindingDB's records for patent US10087187 (Janssen Pharmaceutica, 2018).

SMILES strings stand for the structures.

The target of assay [1] is Phosphatidylinositol 4,5-bisphosphate 3-kinase catalytic subunit alpha isoform (Homo sapiens, UniProt P42336). Nature of the assay: KINOMEscan Enzyme Binding Assays. As to the method: (§1) Kinase enzyme binding affinities of compounds disclosed herein were determined using the KINOMEscan technology performed by DiscoveRx Corporation, San Diego, Calif., USA (www.kinomescan.com).
Phosphatidylinositol 4,5-bisphosphate 3-kinase catalytic subunit alpha isoform, sequence (P42336 whole entry, canonical isoform): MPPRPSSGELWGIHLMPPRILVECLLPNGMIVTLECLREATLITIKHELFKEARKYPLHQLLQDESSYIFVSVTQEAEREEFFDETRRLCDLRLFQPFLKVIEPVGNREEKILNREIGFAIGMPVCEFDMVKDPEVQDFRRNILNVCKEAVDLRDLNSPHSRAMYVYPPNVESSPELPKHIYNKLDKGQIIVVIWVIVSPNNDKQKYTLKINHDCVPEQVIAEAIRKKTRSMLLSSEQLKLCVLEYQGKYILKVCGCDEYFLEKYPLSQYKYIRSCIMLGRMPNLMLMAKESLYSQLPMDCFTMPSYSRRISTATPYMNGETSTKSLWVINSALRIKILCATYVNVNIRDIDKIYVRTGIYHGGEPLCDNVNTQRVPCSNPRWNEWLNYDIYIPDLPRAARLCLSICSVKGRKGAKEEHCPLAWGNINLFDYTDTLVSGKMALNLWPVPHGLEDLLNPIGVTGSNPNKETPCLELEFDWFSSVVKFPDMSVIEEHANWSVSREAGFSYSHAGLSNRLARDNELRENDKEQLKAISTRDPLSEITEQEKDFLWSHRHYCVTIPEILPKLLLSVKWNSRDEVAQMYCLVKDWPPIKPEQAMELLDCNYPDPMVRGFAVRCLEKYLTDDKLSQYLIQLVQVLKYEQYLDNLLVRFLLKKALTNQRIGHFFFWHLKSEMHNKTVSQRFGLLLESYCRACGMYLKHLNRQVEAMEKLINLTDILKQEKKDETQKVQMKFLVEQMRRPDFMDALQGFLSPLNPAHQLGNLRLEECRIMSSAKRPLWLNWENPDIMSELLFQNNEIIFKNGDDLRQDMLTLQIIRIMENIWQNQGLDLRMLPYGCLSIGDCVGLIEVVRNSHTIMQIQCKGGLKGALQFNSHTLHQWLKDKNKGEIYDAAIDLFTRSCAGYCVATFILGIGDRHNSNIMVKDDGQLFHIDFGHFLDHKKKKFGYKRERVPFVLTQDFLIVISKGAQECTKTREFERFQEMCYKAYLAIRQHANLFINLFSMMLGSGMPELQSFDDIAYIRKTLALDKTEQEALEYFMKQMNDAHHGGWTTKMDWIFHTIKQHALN

Assay [2] concerns the target Phosphatidylinositol 4,5-bisphosphate 3-kinase catalytic subunit beta isoform (Homo sapiens, UniProt P42338). In words: KINOMEscan Enzyme Binding Assays. As to the method: as §1

Phosphatidylinositol 4,5-bisphosphate 3-kinase catalytic subunit beta isoform, sequence (P42338 whole entry, canonical isoform): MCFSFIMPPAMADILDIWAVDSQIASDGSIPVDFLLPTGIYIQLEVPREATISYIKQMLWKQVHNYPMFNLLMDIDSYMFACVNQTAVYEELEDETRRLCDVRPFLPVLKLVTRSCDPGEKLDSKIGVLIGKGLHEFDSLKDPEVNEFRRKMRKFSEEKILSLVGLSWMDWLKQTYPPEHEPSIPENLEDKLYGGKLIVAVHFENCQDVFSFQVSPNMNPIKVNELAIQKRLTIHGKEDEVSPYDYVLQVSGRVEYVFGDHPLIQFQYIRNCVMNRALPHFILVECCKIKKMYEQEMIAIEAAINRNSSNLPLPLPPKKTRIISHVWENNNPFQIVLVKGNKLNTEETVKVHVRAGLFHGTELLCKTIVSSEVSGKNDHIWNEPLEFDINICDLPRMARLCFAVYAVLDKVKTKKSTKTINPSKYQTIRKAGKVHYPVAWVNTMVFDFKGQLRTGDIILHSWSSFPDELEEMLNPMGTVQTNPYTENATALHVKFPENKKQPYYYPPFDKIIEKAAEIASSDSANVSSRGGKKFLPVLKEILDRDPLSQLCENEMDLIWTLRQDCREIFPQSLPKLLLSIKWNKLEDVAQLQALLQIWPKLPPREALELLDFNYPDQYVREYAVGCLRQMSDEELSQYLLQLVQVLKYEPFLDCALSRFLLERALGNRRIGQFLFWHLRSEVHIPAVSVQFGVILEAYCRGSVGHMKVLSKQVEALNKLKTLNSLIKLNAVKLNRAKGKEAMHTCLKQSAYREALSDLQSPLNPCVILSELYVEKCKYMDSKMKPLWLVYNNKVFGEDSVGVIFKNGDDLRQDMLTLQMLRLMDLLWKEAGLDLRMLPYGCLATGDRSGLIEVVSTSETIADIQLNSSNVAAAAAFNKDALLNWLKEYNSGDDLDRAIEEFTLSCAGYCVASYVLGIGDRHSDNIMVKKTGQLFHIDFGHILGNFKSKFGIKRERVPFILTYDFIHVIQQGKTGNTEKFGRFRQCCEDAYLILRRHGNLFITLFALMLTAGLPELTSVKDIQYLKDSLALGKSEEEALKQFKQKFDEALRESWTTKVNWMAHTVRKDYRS

As a reminder, the Kd is a measure of binding affinity in units of concentration. A lower Kd goes with higher affinity. On to `Cc1c(Cc2c(CO)nc3c(-c4cnc[nH]4)cc(N4CCOCC4)nn23)cccc1C(F)(F)F` [US10087187, Compound 19], for which the equilibrium dissociation constant (Kd) in assay [1] was determined as 886 nM; in assay [2], 1.9 nM.

In the case of `CCc1c(F)cccc1Cc1c(CNCCO)nc2c(N)cc(N3CCOCC3)nn12` [US10087187, Compound 101], the Kd in assay [1] worked out at 5890 nM; in assay [2], 6.2 nM.
